From ChEMBL document CHEMBL1201862, “PubChem BioAssay data set” (2004)
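Grown in 96-well plates, cells were treated for 48 hours with each compound at five concentrations. Insufficient inhibition: endpoint recorded as highest concentration tested. At the GI50, growth is halved.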 Active and inactive are the calls of the source. No stated cut-off is given here; in the data, active = GI50 up to about 1.1 µM and inactive = higher.

Legend:
Test in all cases: NCI-60 cell line screen, 48 h
DLD-1 = tested on: DLD-1
DMS-273 = tested on: DMS-273
EKVX = tested on: EKVX
IGROV-1 = tested on: IGROV-1
LXFL 529 = tested on: LXFL 529
NCI-H226 = tested on: NCI-H226
NCI-H460 = tested on: NCI-H460
XF498 = tested on: XF498
HOP-92 = tested on: HOP-92
MCF7 = tested on: MCF7
NCI/ADR-RES = tested on: NCI/ADR-RES
786-0 = tested on: 786-0
M14 = tested on: M14
BT-549 = tested on: BT-549
DU-145 = tested on: DU-145
MDA-MB-231 = tested on: MDA-MB-231
MDA-MB-435 = tested on: MDA-MB-435
MDA-N = tested on: MDA-N
PC-3 = tested on: PC-3
T47D = tested on: T47D

Measured: GI50

C=CC(C)C1(CCCOCc2ccccc2)C(=S)N2CCC3(CC24CCCC14)OCCO3 (centres undefined)
inactive: DLD-1 54.6 µM | DMS-273 10.3 µM | EKVX > 100 µM | IGROV-1 > 100 µM | LXFL 529 6.1 µM | NCI-H226 36.6 µM | NCI-H460 26.3 µM | XF498 3.06 µM

C/C=C/C1=CC(=O)C(O)C1O (centres undefined)
inactive: DLD-1 30.4 µM | DMS-273 25.9 µM | EKVX 44.6 µM | HOP-92 27.2 µM | IGROV-1 35.6 µM | MCF7 30.8 µM | NCI-H226 24.1 µM | NCI-H460 19.7 µM | NCI/ADR-RES 25.5 µM | XF498 18.5 µM

O=C(NC1C=CCC2C(=O)N(c3ccccc3)C(=O)C12)OCc1ccccc1 (centres undefined)
inactive: 786-0 > 100 µM | DLD-1 > 100 µM | DMS-273 > 100 µM | EKVX > 100 µM | HOP-92 > 100 µM | IGROV-1 > 100 µM | LXFL 529 > 100 µM | M14 > 100 µM | NCI-H226 > 100 µM | NCI-H460 > 100 µM | XF498 > 100 µM

CC(C)=CC1(C)/C(=N\O)C(C)(CC(C)C)C(=O)N1O (centres undefined)
inactive: 786-0 > 100 µM | DLD-1 > 100 µM | DMS-273 > 100 µM | EKVX > 100 µM | HOP-92 > 100 µM | IGROV-1 > 100 µM | LXFL 529 > 100 µM | M14 > 100 µM | NCI-H226 > 100 µM | NCI-H460 > 100 µM | XF498 11.3 µM

Cn1cc(NC(=O)[C@H]2CCC(N)=N2)cc1C(=O)NCCC(=N)N
inactive: 786-0 > 100 µM | DLD-1 > 100 µM | DMS-273 > 100 µM | EKVX > 100 µM | HOP-92 > 100 µM | IGROV-1 > 100 µM | LXFL 529 > 100 µM | M14 > 100 µM | NCI-H226 > 100 µM | NCI-H460 > 100 µM | XF498 > 100 µM

COc1ccc(C(=O)/C=C/c2ccc(OCC(=O)N3CCN(c4ccccc4)CC3)cc2)cc1
inactive: 786-0 30.1 µM | BT-549 24.9 µM | DLD-1 > 100 µM | DMS-273 29.8 µM | DU-145 > 100 µM | EKVX > 70.5 µM | HOP-92 14.2 µM | IGROV-1 34 µM | LXFL 529 > 65.8 µM | M14 > 100 µM | MCF7 78.2 µM | MDA-MB-231 > 27.3 µM | MDA-MB-435 > 100 µM | MDA-N > 100 µM | NCI-H226 > 83 µM | NCI-H460 82.4 µM | NCI/ADR-RES 43.2 µM | PC-3 45.5 µM | T47D 35.6 µM | XF498 35.9 µM

c1ccc2c(c1)CCCC/C2=N/OCC1CO1 (centres undefined)
inactive: DLD-1 > 100 µM | DMS-273 53.1 µM | EKVX 56.9 µM | HOP-92 22.3 µM | IGROV-1 50.8 µM | LXFL 529 36.3 µM | NCI-H226 35.3 µM | NCI-H460 80.7 µM | XF498 29.4 µM

O=C(O)C1=CNC(C(=O)O)=NN1
inactive: 786-0 > 100 µM | DLD-1 > 100 µM | EKVX > 100 µM | HOP-92 > 100 µM | IGROV-1 > 100 µM | LXFL 529 > 100 µM | M14 > 100 µM | NCI-H226 > 100 µM | NCI-H460 > 100 µM | XF498 > 100 µM

Cc1csc(/N=C(/NCCN2CCOCC2)Nc2nc(C)cs2)n1
inactive: DLD-1 > 100 µM | DMS-273 > 100 µM | EKVX > 87.9 µM | HOP-92 > 88.9 µM | IGROV-1 > 100 µM | MCF7 > 84.5 µM | NCI-H226 > 100 µM | NCI-H460 > 100 µM | NCI/ADR-RES > 100 µM | XF498 > 100 µM

CCCCCCCSc1nc2c(C(=O)OCC)ncn2c2ccccc12
inactive: DMS-273 > 100 µM | EKVX > 100 µM | HOP-92 25.1 µM | IGROV-1 > 100 µM | LXFL 529 > 100 µM | M14 > 100 µM | NCI-H226 > 100 µM | NCI-H460 > 100 µM | XF498 > 100 µM
